Experimental data from ChEMBL document CHEMBL1201862, “PubChem BioAssay data set” (2004).
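Values below derive from 48-hour exposures of cells grown in 96-well plates, with endpoints linearly interpolated between the two concentrations bracketing the appropriate inhibition level. GI50 is the concentration that inhibits growth by half.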 Active and inactive are the calls of the source. Cut-off read from the data, not from the text of the source: active = GI50 up to about 1.1 µM and inactive = higher.

Tests used:
Test in all cases: NCI-60 cell line screen, 48 h
A498 = test system: A498
CAKI-1 = test system: CAKI-1
EKVX = test system: EKVX
HCT-15 = test system: HCT-15
HOP-62 = test system: HOP-62
HT-29 = test system: HT-29
IGROV-1 = test system: IGROV-1
MCF7 = test system: MCF7
MOLT-4 = test system: MOLT-4
NCI-H226 = test system: NCI-H226
OVCAR-8 = test system: OVCAR-8
PC-3 = test system: PC-3
RXF 393 = test system: RXF 393
SF-268 = test system: SF-268
SF-539 = test system: SF-539
SK-MEL-2 = test system: SK-MEL-2
UACC-62 = test system: UACC-62

Row | SMILES | GI50 (A498) | GI50 (CAKI-1) | GI50 (EKVX) | GI50 (HCT-15) | GI50 (HOP-62) | GI50 (HT-29) | GI50 (IGROV-1) | GI50 (MCF7) | GI50 (MOLT-4) | GI50 (NCI-H226) | GI50 (OVCAR-8) | GI50 (PC-3) | GI50 (RXF 393) | GI50 (SF-268) | GI50 (SF-539) | GI50 (SK-MEL-2) | GI50 (UACC-62)
1 | CC(=O)Nc1ccc(S(=O)(=O)N=S(C)C)cc1 | > 100 µM (inactive) | > 100 µM (inactive) | > 100 µM (inactive) | > 100 µM | > 100 µM (inactive) | > 100 µM (inactive) | > 100 µM (inactive) | > 100 µM (inactive) | > 100 µM (inactive) | > 100 µM (inactive) | > 100 µM (inactive) | > 100 µM (inactive) | > 100 µM (inactive) | > 100 µM (inactive) | > 100 µM (inactive) | > 100 µM (inactive) | > 100 µM (inactive)
2 | Cn1ncc2c(Nc3cccc(Cl)c3)nc(Nc3cccc(Cl)c3)nc21 | 5.98 µM (inactive) | 7.6 µM (inactive) | 14.5 µM (inactive) | 4.43 µM | 17.3 µM (inactive) | 3.87 µM (inactive) | 12.2 µM (inactive) | 4.68 µM (inactive) | 4.68 µM (inactive) | > 48.3 µM (inactive) | 10.9 µM (inactive) | 8.24 µM (inactive) | 3.48 µM (inactive) | 14.1 µM (inactive) | 19.9 µM (inactive) | 14.9 µM (inactive) | 13.7 µM (inactive)
3 | ON(CCc1ccccn1)Cc1ccccc1 | > 100 µM (inactive) | > 100 µM (inactive) | > 100 µM (inactive) | > 100 µM | > 100 µM (inactive) | > 100 µM (inactive) | > 100 µM (inactive) | > 100 µM (inactive) | > 100 µM (inactive) | > 100 µM (inactive) | > 100 µM (inactive) | > 100 µM (inactive) | > 100 µM (inactive) | > 100 µM (inactive) | > 100 µM (inactive) | > 100 µM (inactive) | > 100 µM (inactive)
4 | O=C(c1ccccc1)c1c(-c2ccccc2)[nH]n(-c2ccc([N+](=O)[O-])cc2)c(=O)c1=O | > 100 µM (inactive) | 87.3 µM (inactive) | 91 µM (inactive) | 39.5 µM | > 100 µM (inactive) | 36.6 µM (inactive) | > 100 µM (inactive) | 33.7 µM (inactive) | 37.2 µM (inactive) | 39.7 µM (inactive) | 31.1 µM (inactive) | 42.9 µM (inactive) | > 100 µM (inactive) | 40.2 µM (inactive) | 28.8 µM (inactive) | 21.1 µM (inactive) | < 0.01 µM (active)
5 | Cc1ccc2c(c1C)C(=O)/C(=C/c1ccccc1C(=O)O)C2 | > 100 µM (inactive) | > 100 µM (inactive) | > 100 µM (inactive) | > 100 µM | > 100 µM (inactive) | > 100 µM (inactive) | > 100 µM (inactive) | > 100 µM (inactive) | > 100 µM (inactive) | > 100 µM (inactive) | > 100 µM (inactive) | > 100 µM (inactive) | > 100 µM (inactive) | > 100 µM (inactive) | > 100 µM (inactive) | > 100 µM (inactive) | > 100 µM (inactive)
6 | COc1cc(/N=C\N(C)C)c2ncccc2c1 | 42.7 µM (inactive) | 86.3 µM (inactive) | > 100 µM (inactive) | 38.1 µM | > 100 µM (inactive) | 69.8 µM (inactive) | 33.9 µM (inactive) | 48.5 µM (inactive) | 35.7 µM (inactive) | 49.4 µM (inactive) | 51.8 µM (inactive) | 90.6 µM (inactive) | 75.3 µM (inactive) | 66.1 µM (inactive) | 33.5 µM (inactive) | 46.2 µM (inactive) | 54.1 µM (inactive)
7 | C=C(Br)CN(CC(=C)Br)C(C)=O | > 100 µM (inactive) | > 100 µM (inactive) | > 100 µM (inactive) | > 100 µM | > 100 µM (inactive) | > 100 µM (inactive) | > 100 µM (inactive) | > 100 µM (inactive) | > 100 µM (inactive) | > 100 µM (inactive) | > 100 µM (inactive) | 81.8 µM (inactive) | > 100 µM (inactive) | > 100 µM (inactive) | > 100 µM (inactive) | > 100 µM (inactive) | > 100 µM (inactive)
8 | CN(C)c1ccc(C2SCC(=O)N2c2nc3cc4sc(N5C(=O)CSC5c5ccc(N(C)C)cc5)nc4cc3s2)cc1 (centres undefined) | 27.9 µM (inactive) | 8.49 µM (inactive) | 54.1 µM (inactive) | 8.87 µM | 56.6 µM (inactive) | 17 µM (inactive) | 29.3 µM (inactive) | 12 µM (inactive) | 3.37 µM (inactive) | 7.62 µM (inactive) | > 70.5 µM (inactive) | 38.1 µM (inactive) | > 100 µM (inactive) | 75.7 µM (inactive) | 51.5 µM (inactive) | > 100 µM (inactive) | > 72.3 µM (inactive)
9 | COC(=O)[C@]12CC[C@H]3CN(C(=O)OCc4ccccc4)[C@H]([C@H]31)[C@H](c1ccccc1)N2 | 80 µM (inactive) | 70.6 µM (inactive) | 53.5 µM (inactive) | 69.3 µM | > 100 µM (inactive) | 74.8 µM (inactive) | > 100 µM (inactive) | 67.6 µM (inactive) | 33 µM (inactive) | 86.7 µM (inactive) | 78.9 µM (inactive) | 43.2 µM (inactive) | 59.6 µM (inactive) | > 100 µM (inactive) | > 100 µM (inactive) | 59.7 µM (inactive) | 55 µM (inactive)
10 | CC12Nc3c(Cl)cc(Cl)cc3N1C(=O)c1ccccc12 (centres undefined) | 18.5 µM (inactive) | > 100 µM (inactive) | 57 µM (inactive) | > 100 µM | > 100 µM (inactive) | > 100 µM (inactive) | 92.3 µM (inactive) | > 100 µM (inactive) | 58.7 µM (inactive) | 68.7 µM (inactive) | > 100 µM (inactive) | > 100 µM (inactive) | 78.3 µM (inactive) | > 100 µM (inactive) | > 100 µM (inactive) | > 100 µM (inactive) | > 100 µM (inactive)
11 | CC(C)=CCC/C(C)=C/CC/C(C)=C/CC(CO)N(C)CC/C=C(\C)CCC=C(C)C (centres undefined) | 14.9 µM (inactive) | 6.64 µM (inactive) | 10.4 µM (inactive) | 3.78 µM | 4.32 µM (inactive) | 3.5 µM (inactive) | 3.1 µM (inactive) | 2.11 µM (inactive) | 2.39 µM (inactive) | 13.7 µM (inactive) | 7 µM (inactive) | 7.96 µM (inactive) | 4.82 µM (inactive) | 13.3 µM (inactive) | 3.06 µM (inactive) | 14.3 µM (inactive) | 16.1 µM (inactive)
12 | c1ccc2[nH]c3[nH]c4[nH]c5ccccc5[nH]c4[nH]c3[nH]c2c1 | > 100 µM (inactive) | > 100 µM (inactive) | > 100 µM (inactive) | > 100 µM | > 100 µM (inactive) | > 100 µM (inactive) | > 100 µM (inactive) | > 100 µM (inactive) | > 100 µM (inactive) | > 100 µM (inactive) | > 100 µM (inactive) | > 100 µM (inactive) | > 100 µM (inactive) | > 100 µM (inactive) | > 100 µM (inactive) | > 100 µM (inactive) | > 100 µM (inactive)
